Key:
Assay type in all cases: biochemical
[1] = target: T1, Recombinant human Tyro3 (455-end) (Homo sapiens, UniProt Q06418); assay: Kinase enzymatic activity assay ([33P]-ATP phosphate transfer), Tyro3; details: inhibitory activity on Tyro3; class symbols
T1 construct: GST (N); made in house; host or cells: Sf9 insect cells (baculovirus)
T1 sequence (Q06418 455-890 limits assumed): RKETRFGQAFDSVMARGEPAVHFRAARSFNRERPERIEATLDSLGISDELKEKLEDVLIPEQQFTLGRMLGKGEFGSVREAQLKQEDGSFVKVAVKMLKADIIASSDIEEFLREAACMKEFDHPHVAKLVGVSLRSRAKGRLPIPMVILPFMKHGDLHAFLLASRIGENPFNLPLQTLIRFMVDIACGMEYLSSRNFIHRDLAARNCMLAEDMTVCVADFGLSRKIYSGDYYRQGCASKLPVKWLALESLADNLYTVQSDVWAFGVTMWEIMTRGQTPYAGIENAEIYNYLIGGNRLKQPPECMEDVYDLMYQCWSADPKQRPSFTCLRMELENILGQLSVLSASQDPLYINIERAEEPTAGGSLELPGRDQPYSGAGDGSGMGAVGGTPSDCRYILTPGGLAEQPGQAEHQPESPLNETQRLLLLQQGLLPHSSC
Summary of the method: (§1)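 Kinases were N-terminal GST-tagged constructs expressed in Sf9 cells, with poly(Glu:Tyr 4:1) as substrate. Reactions ran in MOPS buffer pH 7.2 with MgCl2 and [33P]-ATP (250 μM cocktail stock) for 30 min at room temperature. Filter-bound radioactivity gave % inhibition, and IC50 was taken from serial dilutions.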

[2] = target: T2, human Axl (473-end) (Homo sapiens, UniProt P30530); assay: Kinase enzymatic activity assay ([33P]-ATP phosphate transfer), Axl; details: inhibitory activity on Axl; class symbols
T2 construct: GST (N); made in house; host or cells: Sf9 insect cells (baculovirus)
T2 sequence (P30530 473-894 limits assumed): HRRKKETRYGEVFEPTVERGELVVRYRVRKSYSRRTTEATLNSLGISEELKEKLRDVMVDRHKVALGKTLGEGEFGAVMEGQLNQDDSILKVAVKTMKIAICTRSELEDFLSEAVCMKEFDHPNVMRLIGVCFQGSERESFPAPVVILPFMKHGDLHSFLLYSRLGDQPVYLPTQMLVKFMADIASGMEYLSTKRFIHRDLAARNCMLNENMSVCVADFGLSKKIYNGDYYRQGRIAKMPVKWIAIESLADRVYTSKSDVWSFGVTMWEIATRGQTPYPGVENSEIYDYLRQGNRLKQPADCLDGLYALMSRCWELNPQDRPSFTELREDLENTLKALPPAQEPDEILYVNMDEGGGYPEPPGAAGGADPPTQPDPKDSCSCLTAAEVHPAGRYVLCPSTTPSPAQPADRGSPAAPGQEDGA
Summary of the method: as §1

[3] = target: T3, human Mer (578-872) (Homo sapiens, UniProt Q12866); assay: Kinase enzymatic activity assay ([33P]-ATP phosphate transfer), Mer; details: inhibitory activity on Mer; class symbols
T3 construct: GST (N); made in house; host or cells: Sf9 insect cells (baculovirus)
T3 sequence (Q12866 578-872): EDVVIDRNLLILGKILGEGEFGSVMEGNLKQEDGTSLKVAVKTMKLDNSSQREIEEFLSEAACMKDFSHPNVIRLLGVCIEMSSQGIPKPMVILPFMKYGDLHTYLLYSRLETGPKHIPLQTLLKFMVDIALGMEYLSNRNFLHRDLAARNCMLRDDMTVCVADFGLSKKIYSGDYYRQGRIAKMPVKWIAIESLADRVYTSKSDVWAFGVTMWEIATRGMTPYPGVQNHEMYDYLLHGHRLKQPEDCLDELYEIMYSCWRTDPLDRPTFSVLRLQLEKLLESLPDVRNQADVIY
Summary of the method: as §1

Row | Compound | IC50 [1] | IC50 [2] | IC50 [3]
1 | CC(C)(C)OC(=O)N1CCC(n2cc(-c3cnc(N)c(-c4nnc(-c5nccs5)o4)c3)cn2)CC1 [tert-butyl 4-(4-(6-amino-5-(5-(thiazol-2-yl)-1,3,4-oxadiazol-2-yl)pyridin-3-yl)-1H-pyrazol-1-yl)piperidine-1-carboxylate] | 1 to 10 µM | 0.5 to 1 µM | 1 to 10 µM
2 | Nc1ncc(-c2cnn(C3CCCCC3)c2)cc1-c1nc(-c2c(Cl)cccc2Cl)no1 [5-(1-cyclohexyl-1H-pyrazol-4-yl)-3-(3-(2,6-dichlorophenyl)-1,2,4-oxadiazol-5-yl)pyridin-2-amine] | < 0.5 µM | 1 to 10 µM | 1 to 10 µM
3 | Nc1ncc(-c2cnn(C3CCCCC3)c2)cc1-c1ncc(-c2ccc(Cl)cc2)o1 [3-(5-(4-chlorophenyl)oxazol-2-yl)-5-(1-cyclohexyl-1H-pyrazol-4-yl)pyridin-2-amine] | > 10 µM | > 10 µM | > 10 µM
4 | Nc1ncc(-c2cnn(C3CCN(C(=O)C4CC4)CC3)c2)cc1-c1ncc(-c2cccc(Cl)c2)o1 [(4-(4-(6-amino-5-(5-(3-chlorophenyl)oxazol-2-yl)pyridin-3-yl)-1H-pyrazol-1-yl)piperidin-1-yl)(cyclopropyl)methanone] | 0.5 to 1 µM | < 0.5 µM | 1 to 10 µM
5 | CN1CCC(n2cc(-c3cnc(N)c(-c4ncc(-c5cccc(Cl)c5)o4)c3)cn2)CC1 [3-(5-(3-chlorophenyl)oxazol-2-yl)-5-(1-(1-methylpiperidin-4-yl)-1H-pyrazol-4-yl)pyridin-2-amine] | < 0.5 µM | < 0.5 µM | < 0.5 µM
6 | Nc1ncc(-c2cnn(C3CCCCC3)c2)cc1-c1nnc(-c2ccccc2)o1 [5-(1-cyclohexyl-1H-pyrazol-4-yl)-3-(5-phenyl-1,3,4-oxadiazol-2-yl)pyridin-2-amine] | 1 to 10 µM | 1 to 10 µM | > 10 µM
7 | CN1CCC(n2cc(-c3cnc(N)c(-c4nc(-c5c(Cl)cccc5Cl)no4)c3)cn2)CC1 [3-(3-(2,6-dichlorophenyl)-1,2,4-oxadiazol-5-yl)-5-(1-(1-methylpiperidin-4-yl)-1H-pyrazol-4-yl)pyridin-2-amine] | < 0.5 µM | < 0.5 µM | < 0.5 µM
8 | CN1CCC(n2cc(-c3cnc(N)c(-c4cc(-c5ccccc5)on4)c3)cn2)CC1 [5-(1-(1-methylpiperidin-4-yl)-1H-pyrazol-4-yl)-3-(5-phenylisoxazol-3-yl)pyridin-2-amine] | < 0.5 µM | < 0.5 µM | < 0.5 µM
9 | Nc1ncc(-c2cnn(C3CCN(C(=O)C4CC4)CC3)c2)cc1-c1nc(-c2ccccc2)no1 [(4-(4-(6-amino-5-(3-phenyl-1,2,4-oxadiazol-5-yl)pyridin-3-yl)-1H-pyrazol-1-yl)piperidin-1-yl)(cyclopropyl)methanone] | 1 to 10 µM | 1 to 10 µM | 1 to 10 µM
10 | Nc1ncc(-c2cnn(C3CCNCC3)c2)cc1-c1ccc(-c2ccccc2)o1 [3-(5-phenylfuran-2-yl)-5-(1-(piperidin-4-yl)-1H-pyrazol-4-yl)pyridin-2-amine] | < 0.5 µM | < 0.5 µM | 0.5 to 1 µM
11 | Nc1ncc(-c2cnn(C3CCN(C(=O)Cc4ccccc4)CC3)c2)cc1-c1nnc(-c2c(Cl)cccc2Cl)o1 [1-(4-(4-(6-amino-5-(5-(2,6-dichlorophenyl)-1,3,4-oxadiazol-2-yl)pyridin-3-yl)-1H-pyrazol-1-yl)piperidin-1-yl)-2-phenylethanone] | 1 to 10 µM | 1 to 10 µM | 1 to 10 µM
12 | Nc1ncc(-c2cnn(C3CCCCC3)c2)cc1-c1ccc(-c2ccccc2)o1 [5-(1-cyclohexyl-1H-pyrazol-4-yl)-3-(5-phenylfuran-2-yl)pyridin-2-amine] | 1 to 10 µM | 1 to 10 µM | 1 to 10 µM
13 | Nc1ncc(-c2cnn(C3CCN(C(=O)Cc4ccccc4)CC3)c2)cc1-c1ncc(-c2cccc(Cl)c2)o1 [1-(4-(4-(6-amino-5-(5-(3-chlorophenyl)oxazol-2-yl)pyridin-3-yl)-1H-pyrazol-1-yl)piperidin-1-yl)-2-phenylethanone] | < 0.5 µM | < 0.5 µM | 1 to 10 µM
14 | Nc1ncc(-c2cnn(C3CCNCC3)c2)cc1-c1nc(-c2c(Cl)cccc2Cl)no1 [3-(3-(2,6-dichlorophenyl)-1,2,4-oxadiazol-5-yl)-5-(1-(piperidin-4-yl)-1H-pyrazol-4-yl)pyridin-2-amine] | < 0.5 µM | < 0.5 µM | < 0.5 µM
15 | CN1CCC(n2cc(-c3cnc(N)c(-c4noc(-c5ccccc5)n4)c3)cn2)CC1 [5-(1-(1-methylpiperidin-4-yl)-1H-pyrazol-4-yl)-3-(5-phenyl-1,2,4-oxadiazol-3-yl)pyridin-2-amine] | < 0.5 µM | < 0.5 µM | 0.5 to 1 µM
16 | Nc1ncc(-c2cnn(C3CCNCC3)c2)cc1-c1cc(-c2ccccc2)on1 [3-(5-phenylisoxazol-3-yl)-5-(1-(piperidin-4-yl)-1H-pyrazol-4-yl)pyridin-2-amine] | < 0.5 µM | < 0.5 µM | < 0.5 µM
17 | Nc1ncc(-c2cnn(C3CCNCC3)c2)cc1-c1noc(-c2cc(Cl)ccc2Cl)n1 [3-(5-(2,5-dichlorophenyl)-1,2,4-oxadiazol-3-yl)-5-(1-(piperidin-4-yl)-1H-pyrazol-4-yl)pyridin-2-amine] | < 0.5 µM | < 0.5 µM | 0.5 to 1 µM
18 | CCN1CCC(n2cc(-c3cnc(N)c(-c4ncc(-c5ccccc5)o4)c3)cn2)CC1 [5-(1-(1-ethylpiperidin-4-yl)-1H-pyrazol-4-yl)-3-(5-phenyloxazol-2-yl)pyridin-2-amine] | < 0.5 µM | < 0.5 µM | < 0.5 µM
19 | CC(C)(C)OC(=O)N1CCC(n2cc(-c3cnc(N)c(-c4nnc(-c5ccccn5)o4)c3)cn2)CC1 [tert-butyl 4-(4-(6-amino-5-(5-(pyridin-2-yl)-1,3,4-oxadiazol-2-yl)pyridin-3-yl)-1H-pyrazol-1-yl)piperidine-1-carboxylate] | 1 to 10 µM | < 0.5 µM | 1 to 10 µM
20 | CCN1CCC(n2cc(-c3cnc(N)c(-c4nc(-c5c(Cl)cccc5Cl)no4)c3)cn2)CC1 [3-(3-(2,6-dichlorophenyl)-1,2,4-oxadiazol-5-yl)-5-(1-(1-ethylpiperidin-4-yl)-1H-pyrazol-4-yl)pyridin-2-amine] | < 0.5 µM | < 0.5 µM | < 0.5 µM
21 | Nc1ncc(-c2cnn(C3CCCCC3)c2)cc1-c1ncc(-c2ccccc2)o1 [5-(1-cyclohexyl-1H-pyrazol-4-yl)-3-(5-phenyloxazol-2-yl)pyridin-2-amine] | 1 to 10 µM | 1 to 10 µM | > 10 µM
22 | Nc1ncc(-c2cnn(C3CCNCC3)c2)cc1-c1nnc(-c2ccc(F)cc2)o1 [3-(5-(4-fluorophenyl)-1,3,4-oxadiazol-2-yl)-5-(1-(piperidin-4-yl)-1H-pyrazol-4-yl)pyridin-2-amine] | < 0.5 µM | < 0.5 µM | < 0.5 µM
23 | Nc1ncc(-c2cnn(C3CCOCC3)c2)cc1-c1nnc(-c2ccccc2)o1 [3-(5-phenyl-1,3,4-oxadiazol-2-yl)-5-(1-(tetrahydro-2H-pyran-4-yl)-1H-pyrazol-4-yl)pyridin-2-amine] | < 0.5 µM | < 0.5 µM | < 0.5 µM
24 | Nc1ncc(-c2cnn(C3CCOCC3)c2)cc1-c1nc(-c2ccccc2)no1 [3-(3-phenyl-1,2,4-oxadiazol-5-yl)-5-(1-(tetrahydro-2H-pyran-4-yl)-1H-pyrazol-4-yl)pyridin-2-amine] | > 10 µM | > 10 µM | > 10 µM
25 | CC(C)(C)c1ccc(-c2nnc(-c3cc(-c4cnn(C5CCNCC5)c4)cnc3N)o2)cc1 [3-(5-(4-(tert-butyl)phenyl)-1,3,4-oxadiazol-2-yl)-5-(1-(piperidin-4-yl)-1H-pyrazol-4-yl)pyridin-2-amine] | < 0.5 µM | < 0.5 µM | < 0.5 µM
26 | Nc1ncc(-c2cnn(C3CCNCC3)c2)cc1-c1nnc(-c2ccccn2)o1 [5-(1-(piperidin-4-yl)-1H-pyrazol-4-yl)-3-(5-(pyridin-2-yl)-1,3,4-oxadiazol-2-yl)pyridin-2-amine] | < 0.5 µM | < 0.5 µM | < 0.5 µM
